Molecules are shown by their SMILES.

The target of one data set is Dipeptidyl peptidase 4 (Homo sapiens, UniProt P27487). More on the design: species or system Plasma.
Data set [1] is described as follows: Chemical stability in PBS buffer at pH 7.4. The data set is classed as physicochemical.
Data set [2] can be described thus: Kinetic solubility of the compound in PBS buffer at pH 7.4 after 2 hrs by turbidimetric method. The data set is classed as physicochemical. To be noted: read-out: Kinetic_solubility.
Data set [3] can be described thus: Metabolic stability in rat plasma by LC/MS/MS analysis. It is filed as ADME, cell-free. To be noted: read-out: Stability.
Data set [4] can be described thus: Inhibition of DPP9 in bovine testis using Ala-Pro-p-nitroanilide as substrate incubated for 15 mins prior to substrate addition. The arrangement: species or system Bos taurus.
The nature of data set [5]: Octanol-PBS partition coefficient, log D of the compound at pH 7.4 after 2 hrs. The data set is classed as physicochemical.
A short description of data set [6]: Metabolic stability in human plasma by LC/MS/MS analysis. It is filed as ADME, cell-free. The conditions noted are these: read-out: Stability (converted).
In the next data set the target is Dipeptidyl peptidase 2 (Homo sapiens, UniProt Q9UHL4). Briefly: Inhibition of DPP2 in human seminal plasma using Lys-Ala-p-nitroanilide as substrate incubated for 15 mins prior to substrate addition.
In a further data set the target is T1, Prolyl endopeptidase (Homo sapiens, UniProt P48147).
T1 sequence (P48147 whole entry): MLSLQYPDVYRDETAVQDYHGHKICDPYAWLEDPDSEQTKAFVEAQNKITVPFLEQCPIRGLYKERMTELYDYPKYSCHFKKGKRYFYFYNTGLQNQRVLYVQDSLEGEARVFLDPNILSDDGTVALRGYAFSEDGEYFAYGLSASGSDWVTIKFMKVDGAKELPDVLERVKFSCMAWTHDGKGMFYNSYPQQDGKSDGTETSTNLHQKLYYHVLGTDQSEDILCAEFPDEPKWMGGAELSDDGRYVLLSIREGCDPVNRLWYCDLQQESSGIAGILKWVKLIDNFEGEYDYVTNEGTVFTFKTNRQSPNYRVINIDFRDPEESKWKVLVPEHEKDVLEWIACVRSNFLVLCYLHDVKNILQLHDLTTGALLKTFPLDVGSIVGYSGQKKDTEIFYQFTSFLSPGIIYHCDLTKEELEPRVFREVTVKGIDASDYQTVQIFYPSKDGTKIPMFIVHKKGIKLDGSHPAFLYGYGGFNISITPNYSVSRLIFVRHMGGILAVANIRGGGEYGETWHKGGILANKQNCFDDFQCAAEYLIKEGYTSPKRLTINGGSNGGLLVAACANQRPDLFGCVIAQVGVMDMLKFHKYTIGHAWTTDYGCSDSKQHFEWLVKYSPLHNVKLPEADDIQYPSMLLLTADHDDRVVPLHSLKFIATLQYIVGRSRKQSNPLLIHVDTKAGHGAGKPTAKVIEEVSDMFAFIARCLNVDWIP
The data set can be described thus: Inhibition of human recombinant PREP expressed in Escherichia coli using Z-Gly-Pro-p-nitroanilide as substrate incubated for 15 mins prior to substrate addition.

Data set [7] in a line: Metabolic stability in mouse plasma after 24 hrs by LC/MS/MS analysis. The data set is classed as ADME, cell-free. The conditions noted are these: read-out: Stability.
The target of the next data set is T2, Prolyl endopeptidase FAP (Mus musculus, UniProt P97321).
T2 sequence (P97321 whole entry): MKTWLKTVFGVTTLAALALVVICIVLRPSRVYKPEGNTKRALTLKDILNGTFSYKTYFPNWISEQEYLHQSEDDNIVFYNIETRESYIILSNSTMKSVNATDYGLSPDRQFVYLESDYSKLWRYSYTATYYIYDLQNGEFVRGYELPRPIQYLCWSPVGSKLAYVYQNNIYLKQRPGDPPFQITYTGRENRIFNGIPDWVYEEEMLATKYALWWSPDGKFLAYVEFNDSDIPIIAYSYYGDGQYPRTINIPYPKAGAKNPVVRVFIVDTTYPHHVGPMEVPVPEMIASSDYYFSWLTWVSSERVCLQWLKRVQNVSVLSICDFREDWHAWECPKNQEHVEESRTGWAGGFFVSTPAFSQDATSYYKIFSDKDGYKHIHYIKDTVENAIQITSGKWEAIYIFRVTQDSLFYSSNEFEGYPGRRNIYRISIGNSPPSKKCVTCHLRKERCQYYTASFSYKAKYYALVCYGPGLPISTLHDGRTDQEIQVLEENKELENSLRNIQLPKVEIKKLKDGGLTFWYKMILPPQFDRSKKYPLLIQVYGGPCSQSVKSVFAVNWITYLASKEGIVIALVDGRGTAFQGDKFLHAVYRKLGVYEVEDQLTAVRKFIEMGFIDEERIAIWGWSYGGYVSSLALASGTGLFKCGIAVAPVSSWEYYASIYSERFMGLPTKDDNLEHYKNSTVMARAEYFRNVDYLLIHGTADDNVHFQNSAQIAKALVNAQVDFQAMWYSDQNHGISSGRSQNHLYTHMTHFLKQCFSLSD
The data set can be described thus: Inhibition of mouse recombinant FAP expressed in HEK293 cells using Ala-Pro-p-nitroanilide as substrate incubated for 15 mins prior to substrate addition.

Data set [8] in a line: Metabolic stability in mouse liver microsomes after 24 hrs by LC/MS/MS analysis. The data set is classed as ADME, Microsome. The conditions noted are these: read-out: Stability. Background: Liver microsomes are a subcellular fraction often used to study metabolism.

Chain of Dipeptidyl peptidase 4 (P27487 whole entry): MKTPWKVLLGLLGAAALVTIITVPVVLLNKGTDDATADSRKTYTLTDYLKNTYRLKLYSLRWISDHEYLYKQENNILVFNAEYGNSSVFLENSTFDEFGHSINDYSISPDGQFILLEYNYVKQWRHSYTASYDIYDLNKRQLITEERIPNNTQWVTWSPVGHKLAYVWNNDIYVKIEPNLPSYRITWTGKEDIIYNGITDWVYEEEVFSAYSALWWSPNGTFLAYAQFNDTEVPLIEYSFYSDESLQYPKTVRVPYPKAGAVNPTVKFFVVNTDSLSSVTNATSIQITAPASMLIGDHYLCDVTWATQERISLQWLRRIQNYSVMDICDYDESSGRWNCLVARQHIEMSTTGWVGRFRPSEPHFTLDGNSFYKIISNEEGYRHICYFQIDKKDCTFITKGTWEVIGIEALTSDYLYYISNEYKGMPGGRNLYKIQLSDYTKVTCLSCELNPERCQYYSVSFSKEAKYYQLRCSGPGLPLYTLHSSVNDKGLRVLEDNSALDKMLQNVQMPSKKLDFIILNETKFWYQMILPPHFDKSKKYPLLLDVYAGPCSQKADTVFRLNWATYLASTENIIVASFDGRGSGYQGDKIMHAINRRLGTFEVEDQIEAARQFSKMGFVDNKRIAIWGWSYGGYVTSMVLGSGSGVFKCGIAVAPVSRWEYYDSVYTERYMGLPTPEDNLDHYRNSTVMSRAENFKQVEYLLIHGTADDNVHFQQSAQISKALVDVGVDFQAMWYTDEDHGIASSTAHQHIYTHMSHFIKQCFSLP

The IC50 is the concentration that gives 50% inhibition. For `N#C[C@@H]1CCCN1C(=O)CNC(=O)c1ccnc2ccccc12`, the IC50 (against Dipeptidyl peptidase 4; in data set [4]) was above 100 µM throughout. Further, the Stability in [1] is above 24 h. For the same molecule, the solubility kinetic at 2 h in [2] is above 200 µM. Further, the half-life in [3] was above 1440 min.

As a reminder, the logD is the decadic logarithm of the distribution of all forms, ionised or not, between an organic phase and buffer at a given pH. Low readings indicate a more hydrophilic compound, high ones a more lipophilic compound. A word on the Ki: it is a dissociation constant, usually derived from enzyme kinetics or from competition with a known ligand. For `N#C[C@@H]1CCCN1C(=O)CNC(=O)c1ccnc2cccc(Br)c12`, the IC50 against Dipeptidyl peptidase 4 is above 100 µM; against Dipeptidyl peptidase 2 it was above 100 µM; on Prolyl endopeptidase, above 50 µM; in [4], above 100 µM. Also, the logD at 2 h in data set [5] was determined as 0.7. Moreover, the Stability in data set [1] stood at 24 h. For the same molecule, in data set [2], the solubility kinetic at 2 h is above 200 µM. Besides, in data set [6], the half-life was 1440 min. Besides, the remaining at 24 h was determined as 80% in data set [7] and 70% in [8]. Moreover, the Ki on Prolyl endopeptidase FAP was determined as 4.1 nM.

The values are drawn from ChEMBL document CHEMBL2385017, “Selective Inhibitors of Fibroblast Activation Protein (FAP) with a (4-Quinolinoyl)-glycyl-2-cyanopyrrolidine Scaffold” (ACS Med Chem Lett, 2013).
